Experiment: fraction unbound in murine plasma
Type: in vitro ADME
Conditions: mouse

- fraction unbound: 0.028
Compound: CS(=O)(=O)O.Cc1nc(N(C)C(=O)Cc2ccc(-c3ccccn3)cc2)sc1S(N)(=O)=O [mono mesylate monohydrate salt, N-[5-(aminosulfonyl)-4-methyl-1,3-thiazol-2-yl]-N-methyl-2-[4-(2-pyridinyl)-phenyl]acetamide mono methanesulfonic acid monohydrate]

— US20150374676A1, “HELICASE-PRIMASE INHIBITORS FOR USE IN A METHOD OF TREATING ALZHEIMER'S DISEASE” (AICURIS GMBH & CO. KG, priority 2013, published 2015)
